In US10813886B2, “Methods and systems for improved bioavailability of active pharmaceutical ingredients including esomeprazole” (priority 2013, dated 2020):
Values after ≈ are worked out from the molar mass of the structure shown.

Key:
[1] = cited from earlier work
[2] = human, in vivo
Excerpt: Patients were selected from volunteers aged 18 to 65 years, inclusive, with a Body Mass Index (BMI) between […] inclusive and free from any significant diseases including cardiac, renal and gastrointestinal disease. […] The crossover design eliminated potential treatment effects on the outcome, as well as effectively allowing the subject to serve as their own control. Each dosing occasion was separated by a 7-14 day washout period. Fasting conditions represented an overnight fast of at least 10 hours and fed state was after a high calorie, high fat breakfast 30 minutes prior to dosing.
The % EMT was quantified from human plasma according to methods based on the FDA Bioanalytical Method Validation Guide for Industry and the EMA Guideline on bioanalytical method validation (York Bioanalytical Solutions). Briefly, plasma samples were submitted to supported liquid extraction and liquid chromatography with tandem mass spectrometric detection (lower limit of quantification 5.00 ng/ml with a sample aliquot volume of 100 microliters). The analytes detected were esomeprazole, 5-hydroxyomeprazole, and omeprazole sulphone and were validated against commercial samples and calibration standards. […] Calibration samples were obtained commercially as follows: esomeprazole (Sigma-Aldrich), 5-hydroxyomeprazole, and omeprazole sulphone (Toronto Chemicals Inc.). Internal standards omeprazole d3, 5-hydroxyomeprazole d3 and omeprazole sulphone-d3 were also utilized (Toronto Chemicals Inc.). Plasma samples were stored at −20° C. Data was collected using Analyst software (Applied Biosystems-Sciex) in combination with Watson LIMS (Thermo Fisher Scientific); peak area ratios were used to generate calibration curves using regression functions.

[3] = as the magnesium trihydrate, cited from earlier work

Intra-subject Coefficient of Variation of AUCinf [2]: 40.85 CV %
Intra-subject Coefficient of Variation of AUCt [2]: 83.08 CV %
Intra-subject Coefficient of Variation of Cmax [2]: 97.51 CV %
Compound: COc1ccc2nc([S@@+]([O-])Cc3ncc(C)c(OC)c3C)[nH]c2c1 [Esomeprazole]
stability in acid conditions ([1]; acid conditions): degrades
stability at pH 6.8 ([1]; pH 6.8): stable
solubility in heptane [3]: insoluble
solubility in water ([3]; in water at 25° C.): 1500 µg/mL (≈ 4.34 mM)
